What was measured:
[1] = target: B-Raf (Homo sapiens, UniProt P15056); assay: B-Raf biochemical kinase inhibition (AlphaScreen, biotin-MEK1 substrate); conditions: 100 μM ATP
Outline: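 Serial 1:3 dilutions of compound (0.1 mM DMSO stock, eight points) were added first, then ATP to start the reaction at 100 μM final.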

[2] = system: COLO205 colon adenocarcinoma cells (B-Raf V600E); assay: COLO205 cell growth inhibition (ATPlite); type: cell-based; conditions: Homo sapiens, COLO 205, 72 h; COLO205, 3 days incubation
Outline: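 ATPlite luminescence, taken as a cell-number measure, gave IC50 values after a 3-day 37° C, 5% CO2 incubation. Compounds were tested as 8-point threefold titrations, highest final concentration 10 μM, added to cells seeded the day before.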

[3] = Relative solubility by turbidity in aqueous buffers of varying pH; type: physicochemical; conditions: for turbidity threshold (L, M, H) 7.4: HEPES pH 7.4; for turbidity threshold (L, M, H) 4.5: SIF pH 4.5; for turbidity threshold (L, M, H) 6.8: SIF pH 6.8; for turbidity threshold (L, M, H) 1.4: buffer pH 1.4 (SGF)
Outline: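 Turbidity endpoint: concentration where optical density at 490, 535 and 650 nm exceeds 0.01, three-wavelength average used. Buffers at pH 1.5, 4.5, 6.8 and 7.4; DMSO serial dilutions of 25 mM stock spiked 1 μL into 99 μL buffer. Low <31.3, moderate 31.3–250, high >250 μM.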

Sequence of B-Raf (P15056 whole entry): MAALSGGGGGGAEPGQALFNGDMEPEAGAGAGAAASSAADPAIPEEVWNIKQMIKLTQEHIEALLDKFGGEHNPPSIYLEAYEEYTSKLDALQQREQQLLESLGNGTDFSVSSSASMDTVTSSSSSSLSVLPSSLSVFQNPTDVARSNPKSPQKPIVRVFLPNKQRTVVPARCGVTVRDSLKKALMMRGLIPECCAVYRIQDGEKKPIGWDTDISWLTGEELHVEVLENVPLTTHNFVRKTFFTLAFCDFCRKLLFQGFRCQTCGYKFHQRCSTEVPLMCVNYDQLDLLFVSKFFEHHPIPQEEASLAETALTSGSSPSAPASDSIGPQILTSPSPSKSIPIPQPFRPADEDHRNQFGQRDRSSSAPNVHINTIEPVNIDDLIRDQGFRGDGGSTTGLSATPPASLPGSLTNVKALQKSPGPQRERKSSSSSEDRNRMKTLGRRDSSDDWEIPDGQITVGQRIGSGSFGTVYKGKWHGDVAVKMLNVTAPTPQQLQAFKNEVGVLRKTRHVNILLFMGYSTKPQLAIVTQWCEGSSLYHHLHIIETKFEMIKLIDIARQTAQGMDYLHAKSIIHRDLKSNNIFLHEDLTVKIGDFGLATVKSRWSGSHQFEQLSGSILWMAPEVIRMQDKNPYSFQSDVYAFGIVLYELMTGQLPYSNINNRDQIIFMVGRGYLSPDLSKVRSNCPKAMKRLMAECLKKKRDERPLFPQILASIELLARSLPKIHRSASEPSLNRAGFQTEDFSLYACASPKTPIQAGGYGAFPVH

Row | SMILES | IC50 [1] | IC50 [2] | turbidity threshold (L, M, H) 7.4 [3] | turbidity threshold (L, M, H) 4.5 [3] | turbidity threshold (L, M, H) 6.8 [3] | turbidity threshold (L, M, H) 1.4 [3]
1 | CCCS(=O)(=O)Nc1ccc(F)c(C(=O)c2c[nH]c3ncc(-c4ccc(S(=O)(=O)CC)cc4)cc23)c1F [P-2218, Propane-1-sulfonic acid {3-[5-(4-ethanesulfonyl-phenyl)-1H-pyrrolo[2,3-b]pyridine-3-carbonyl]-2,4-difluoro-phenyl}-amide] | < 100 nM | < 100 nM | – | – | – | –
2 | COc1ccnc2[nH]cc(C(=O)c3c(F)ccc(NS(=O)(=O)c4c(F)cccc4F)c3F)c12 [P-2031, N-[2,4-Difluoro-3-(4-methoxy-1H-pyrrolo[2,3-b]pyridine-3-carbonyl)-phenyl]-2,6-difluoro-benzenesulfonamide] | < 1000 nM | < 5000 nM | – | – | – | –
3 | CCCc1ccc(-c2cnc3[nH]cc(C(=O)c4c(F)ccc(NS(=O)(=O)CCC)c4F)c3c2)cn1 [P-2224, Propane-1-sulfonic acid {2,4-difluoro-3-[5-(6-propyl-pyridin-3-yl)-1H-pyrrolo[2,3-b]pyridine-3-carbonyl]-phenyl}-amide] | < 10 nM | < 1000 nM | – | – | – | –
4 | CCCS(=O)(=O)Nc1ccc(F)c(C(=O)c2c[nH]c3ncc(-c4ccc(N)nc4)cc23)c1F [P-2214, Propane-1-sulfonic acid {3-[5-(6-amino-pyridin-3-yl)-1H-pyrrolo[2,3-b]pyridine-3-carbonyl]-2,4-difluoro-phenyl}-amide] | < 10 nM | < 1000 nM | – | – | – | –
5 | N#Cc1cnc2[nH]cc(C(=O)c3c(F)ccc(NS(=O)(=O)c4cccnc4)c3F)c2c1 [P-2072, Pyridine-3-sulfonic acid [3-(5-cyano-1H-pyrrolo[2,3-b]pyridine-3-carbonyl)-2,4-difluoro-phenyl]-amide] | < 10 nM | < 5000 nM | – | – | – | –
6 | CCCS(=O)(=O)Nc1ccc(F)c(C(=O)c2c[nH]c3ncc(-c4ccc(C(=O)NC)nc4)cc23)c1F [P-2180, 5-{3-[2,6-Difluoro-3-(propane-1-sulfonylamino)-benzoyl]-1H-pyrrolo[2,3-b]pyridin-5-yl}-pyridine-2-carboxylic acid methylamide] | < 10 nM | – | L (low solubility if the threshold concentration is <31.3 04) | L (low solubility if the threshold concentration is <31.3 04) | L (low solubility if the threshold concentration is <31.3 04) | L (low solubility if the threshold concentration is <31.3 04)
7 | O=C(c1c(F)ccc(NS(=O)(=O)c2c(F)cccc2F)c1F)c1c[nH]c2nccc(Cl)c12 [P-2033, N-[3-(4-Chloro-1H-pyrrolo[2,3-b]pyridine-3-carbonyl)-2,4-difluoro-phenyl]-2,6-difluoro-benzenesulfonamide] | < 100 nM | < 10000 nM | – | – | – | –
8 | CCCS(=O)(=O)Nc1ccc(F)c(C(=O)c2c[nH]c3ncc(-c4ccc(OC)nc4OC)cc23)c1F [P-2184, Propane-1-sulfonic acid {3-[5-(2,6-dimethoxy-pyridin-3-yl)-1H-pyrrolo[2,3-b]pyridine-3-carbonyl]-2,4-difluoro-phenyl}-amide] | < 100 nM | – | L (low solubility if the threshold concentration is <31.3 04) | L (low solubility if the threshold concentration is <31.3 04) | L (low solubility if the threshold concentration is <31.3 04) | L (low solubility if the threshold concentration is <31.3 04)
9 | CCCS(=O)(=O)Nc1ccc(F)c(C(=O)c2c[nH]c3ncc(-c4cncc(S(C)(=O)=O)c4)cc23)c1F [P-2188, Propane-1-sulfonic acid {2,4-difluoro-3-[5-(5-methanesulfonyl-pyridin-3-yl)-1H-pyrrolo[2,3-b]pyridine-3-carbonyl]-phenyl}-amide] | < 10 nM | – | M (moderate solubility if the threshold concentration is 31.3 μM to 250 μM) | L (low solubility if the threshold concentration is <31.3 04) | L (low solubility if the threshold concentration is <31.3 04) | M (moderate solubility if the threshold concentration is 31.3 μM to 250 μM)
10 | N#Cc1cnc2[nH]cc(C(=O)c3c(F)ccc(NS(=O)(=O)c4c(F)cccc4F)c3F)c2c1 [P-2029, N-[3-(5-Cyano-1H-pyrrolo[2,3-b]pyridine-3-carbonyl)-2,4-difluoro-phenyl]-2,6-difluoro-benzenesulfonamide] | < 100 nM | < 5000 nM | – | – | – | –
11 | CCCS(=O)(=O)Nc1ccc(F)c(C(=O)c2c[nH]c3ncc(-c4ccc(S(N)(=O)=O)cc4)cc23)c1F [P-2194, 4-{3-[2,6-Difluoro-3-(propane-1-sulfonylamino)-benzoyl]-1H-pyrrolo[2,3-b]pyridin-5-yl}-benzenesulfonamide] | < 10 nM | – | L (low solubility if the threshold concentration is <31.3 04) | L (low solubility if the threshold concentration is <31.3 04) | L (low solubility if the threshold concentration is <31.3 04) | L (low solubility if the threshold concentration is <31.3 04)
12 | N#Cc1ccnc2[nH]cc(C(=O)c3c(F)ccc(NS(=O)(=O)c4cccc(F)c4)c3F)c12 [P-2039, N-[3-(4-Cyano-1H-pyrrolo[2,3-b]pyridine-3-carbonyl)-2,4-difluoro-phenyl]-3-fluoro-benzenesulfonamide] | < 10 nM | < 5000 nM | – | – | – | –
13 | CCCS(=O)(=O)Nc1ccc(F)c(C(=O)c2c[nH]c3ncc(-c4ccc(Cl)nc4)cc23)c1F [P-2154, Propane-1-sulfonic acid {3-[5-(6-chloro-pyridin-3-yl)-1H-pyrrolo[2,3-b]pyridine-3-carbonyl]-2,4-difluoro-phenyl}-amide] | < 10 nM | < 1000 nM | – | – | – | –
14 | CCCS(=O)(=O)Nc1ccc(F)c(C(=O)c2c[nH]c3ncc(-c4ccc(C(=O)NC5CC5)nc4)cc23)c1F [P-2181, 5-{3-[2,6-Difluoro-3-(propane-1-sulfonylamino)-benzoyl]-1H-pyrrolo[2,3-b]pyridin-5-yl}-pyridine-2-carboxylic acid cyclopropylamide] | < 10 nM | – | L (low solubility if the threshold concentration is <31.3 04) | L (low solubility if the threshold concentration is <31.3 04) | L (low solubility if the threshold concentration is <31.3 04) | L (low solubility if the threshold concentration is <31.3 04)
15 | COc1ccnc2[nH]cc(C(=O)c3c(F)ccc(NS(=O)(=O)c4cccnc4)c3F)c12 [P-2073, Pyridine-3-sulfonic acid [2,4-difluoro-3-(4-methoxy-1H-pyrrolo[2,3-b]pyridine-3-carbonyl)-phenyl]-amide] | < 100 nM | < 10000 nM | – | – | – | –
16 | CCCS(=O)(=O)Nc1ccc(F)c(C(=O)c2c[nH]c3ncc(-c4ccnc(F)c4)cc23)c1F [P-2192, Propane-1-sulfonic acid {2,4-difluoro-3-[5-(2-fluoro-pyridin-4-yl)-1H-pyrrolo[2,3-b]pyridine-3-carbonyl]-phenyl}-amide] | < 10 nM | – | L (low solubility if the threshold concentration is <31.3 04) | L (low solubility if the threshold concentration is <31.3 04) | L (low solubility if the threshold concentration is <31.3 04) | L (low solubility if the threshold concentration is <31.3 04)
